# Laboratory results: patent US20220040136A1, “TREATMENT OF VULVOVAGINAL DISORDERS” (University of Rochester, priority 2018, published 2022)
# Tested on: C57BL/6J mice
# Assay: Mouse model of LPV, DHA cream (Example 4)
# Type: in vivo
# Source text: A total of 36 C57BL/6J mice were subjected to 6 weeks of allodynia induction using the protocol described above. Briefly, zymosan was used to induce sustained vulvar allodynia, measured by pain threshold testing. An electronic vonFrey system (MOUSEMET™, Topcat Metrology) was used to apply gradually increasing force to the vulva at the injection site, located at the midline posterior vulvar (between the vaginal opening and anus) (FIG. 7A). The hair was applied perpendicular to the vulvar surface with a gradually increasing force within a range of 0.100 g to 7.0 g (FIG. 7B). A positive response was defined as either (1) a reflexive, coordinated four extremity extension, (2) jump, or (3) immediate grooming of the vulva in response to vulvar stimulus, at which point the peak force was recorded.
# During allodynia induction, mice receive weekly injections of zymosan (10 mg/ml in 10 μl saline) for a maximum of 6 injections, until a >33% reduction in pain threshold is observed for 2 consecutive weeks of testing (FIG. 7C). Pain threshold testing was performed at the same time every week, immediately prior to zymosan injection; after the first 2 weeks of injections, a determination of threshold change was performed after pain testing to determine which mice would receive additional zymosan injections. […]
smiles,measurement,setting,value
"CC/C=C\C/C=C\C/C=C\C/C=C\C/C=C\C/C=C\CCC(=O)O [DHA, docosahexaenoic acid]",mice recovered from allodynia,"DHA cream group (12 mice), after 6 weeks of treatment, recovery = 70% improvement over lowest pain threshold for 2 consecutive tests",9 mice
same,first week at which mice began to recover,"DHA group, week = first week of a two-week period with 70% improvement, FIG. 13",1 week
